In the Deep4Chem optical property database:

Assay: solvent given as SMILES

COC(=O)C1=C(C(=O)OC)C2(c3ccccc3-c3c(Br)cc(Br)cc32)C2(/C=C/c3ccc(Cl)cc3)c3cc(OC)c(OC)cc3CCN12 (stereo unspecified) showed an absorption maximum (in ClCCl) of 328 nm.

Compound Cc1cc(C)c(C)c(-c2cc(-c3c(C)c(C)cc(C)c3C)c3ccc4c(-c5c(C)c(C)cc(C)c5C)cc(-c5c(C)c(C)cc(C)c5C)c5ccc2c3c54)c1C has an absorption maximum (in ClCCl) of 364 nm.

F[B-]1(F)n2c(c3cc4ccccc4cc3c2-c2ccccc2)C=C2c3cc4ccccc4cc3C(c3ccccc3)=[N+]21 showed an absorption maximum (in C1CCOC1) of 761 nm, an absorption maximum (in CN(C)C=O) of 764 nm and an absorption maximum (in ClCCl) of 762 nm. It also gave an absorption maximum (in c1ccccc1) of 765 nm.

CN(C)c1ccc2nc3c(cc2c1)c(-c1ccccc1)nn3-c1ccccc1 gave an absorption maximum (in C1CCCCC1) of 439.56 nm, an absorption maximum (in C1CCOC1) of 450.05 nm and an absorption maximum (in CC#N) of 449.24 nm. It also gave an absorption maximum (in CC(C)=O) of 450.45 nm, an absorption maximum (in CCCCCl) of 448.43 nm and an absorption maximum (in CCCCOCCCC) of 444.64 nm. It also gave an absorption maximum (in CN(C)C=O) of 452.69 nm.

Work on CCCN1c2ccccc2Sc2cc(C#CC3=C4C=CC=[N+]4[B-](F)(F)n4cccc43)ccc21 yielded an absorption maximum (in ClCCl) of 540 nm.

In the case of C[Si](C)(C)C#Cc1cccc2ccccc12, the absorption maximum (in C1CCCCC1) is reported as 316 nm.

c1ccc2c(c1)c1ccccc1n2-c1ccc(-c2nnc(-c3ccc(-n4c5ccccc5c5ccccc54)cc3)o2)cc1 showed an absorption maximum (in Cc1ccccc1) of 343 nm.

Work on O=C(c1ccc(C(=O)c2ccc(N3c4ccccc4Oc4ccccc43)cc2)cc1)c1ccc(N2c3ccccc3Oc3ccccc32)cc1 yielded an absorption maximum (in Cc1ccccc1) of 425 nm.

Compound COc1ccc(O)c(-c2[nH]c(=O)n3c2-c2ccccc2C3=O)c1 has an absorption maximum (in CC#N) of 395 nm, an absorption maximum (in CO) of 401 nm and an absorption maximum (in ClCCl) of 399 nm.

For COc1ccc(-c2cc3c(s2)=CC2=C(C(F)(F)F)c4cc5sc(-c6ccc(OC)cc6)cc5n4[B-](F)(F)[N+]=32)cc1, the absorption maximum (in C1CCOC1) was 730 nm and the absorption maximum (in ClC(Cl)Cl) was 731 nm.

Work on CCCCCCOc1ccc(N(c2ccc(OCCCCCC)cc2)c2ccc(-c3sc(-c4ccc(N(c5ccc(OCCCCCC)cc5)c5ccc(OCCCCCC)cc5)cc4)c4nc(C(=O)OCC)c(C(=O)OCC)nc34)cc2)cc1 yielded an absorption maximum (in ClCCl) of 665 nm.

Compound COc1cc2oc(=O)c3c4ccc(C=O)cc4c4ccc5cccc6c(c1)c2c3c4c56 has an absorption maximum (in C1CCOC1) of 425 nm.

Work on c1ccc(N(c2ccccc2)c2ccc3ccc4c(N(c5ccccc5)c5ccccc5)ccc5ccc2c3c54)cc1 yielded an absorption maximum (in Cc1ccccc1) of 426 nm and an absorption maximum (in ClCCl) of 423 nm.

Clc1ccc(-c2nc(-c3ccccc3)c(N(c3ccccc3)c3ccccc3)s2)cc1 gave an absorption maximum (in ClC(Cl)Cl) of 371 nm.

COc1cc(OC)c2cc(C#N)c(=N)oc2c1 showed an absorption maximum (in ClCCl) of 372 nm.

In the case of COc1ccc(-c2nc(-c3ccc(OC)cc3)c(-c3ccc(OC)cc3)[nH]2)cc1, the absorption maximum (in CO) is reported as 295 nm.

COc1cc(C2=C(c3ccc(C(C)(C)C)cc3)C(c3ccc(C(C)(C)C)cc3)=[N+]3C2=Nc2c(-c4cc(OC)c(OC)c(OC)c4)c(-c4ccc(C(C)(C)C)cc4)c(-c4ccc(C(C)(C)C)cc4)n2[B-]3(F)F)cc(OC)c1OC showed an absorption maximum (in Cc1ccccc1) of 675 nm.

For Nc1ccc2c(c1)Cc1ccccc1-2, the absorption maximum (in C1CCCCC1) was 318 nm, the absorption maximum (in C1COCCO1) was 322 nm and the absorption maximum (in CC#N) was 325 nm. It also gave an absorption maximum (in CC(C)O) of 317 nm, an absorption maximum (in CCCCCC) of 318 nm and an absorption maximum (in CCCCCCC) of 317 nm. It also gave an absorption maximum (in CCO) of 317 nm, an absorption maximum (in CCOC(C)=O) of 325 nm and an absorption maximum (in CCOCC) of 318 nm. The absorption maximum (in CO) was 317 nm, the absorption maximum (in ClCCl) was 319 nm and the absorption maximum (in O) was 315 nm.

c1ccc(N(c2ccccc2)c2ccc(-n3ccc4cc(-c5cccc6c5-c5ccccc5C6(c5ccccc5)c5ccccc5)ccc43)cc2)cc1 gave an absorption maximum (in ClCCl) of 322 nm.

Compound O=P1(c2ccccc2)C(c2ccsc2)=C(c2ccsc2)c2ccccc21 (stereo unspecified) has an absorption maximum (in C1CCOC1) of 355 nm.

For CCCCNc1ccc2n1[B-](F)(F)[N+]1=CC(/C=C/C(=O)OC(C)(C)C)=CC1=C2c1c(C)cc(C)cc1C, the absorption maximum (in ClCCl) was 499 nm.

Compound c1ccc(-c2cc3cccc[n+]3[b-]3ccc(-c4cc[b-]5c(c4)c(-c4ccccc4)cc4cccc[n+]54)cc32)cc1 has an absorption maximum (in C1CCCCC1) of 517 nm.

In the case of CN(C)c1ccc(-c2nc3nccnc3n2-c2ccccc2)cc1, the absorption maximum (in CC#N) is reported as 371 nm.

In the case of CC[Si](C)(C)c1cc2ccc3cccc4ccc(c1C(=O)NC(C)(C)C)c2c34, the absorption maximum (in ClC(Cl)Cl) is reported as 381 nm.

Compound CCN(C)c1ccc(C2=C3C(C)=CC(/C=C/c4ccc(OCCCN=[N+]=[N-])cc4)=[N+]3[B-](F)(F)n3c(C)cc(C)c32)cc1 has an absorption maximum (in CO) of 568 nm.

For c1csc(-c2ccc(-c3ccc(-c4cccs4)s3)s2)c1, the absorption maximum (in CCCCCCCCCCCCCC) was 391 nm and the absorption maximum (in ClCCl) was 393 nm.

For CCCCC(CC)CN1C(=O)c2cccc3c(C#Cc4ccc(N(c5ccc(C#Cc6ccc7c8c(cccc68)C(=O)N(CC(CC)CCCC)C7=O)cc5)c5ccc(C#Cc6ccc7c8c(cccc68)C(=O)N(CC(CC)CCCC)C7=O)cc5)cc4)ccc(c23)C1=O (stereo unspecified), the absorption maximum (in C1CCCCC1) was 444 nm, the absorption maximum (in C1CCOC1) was 447 nm and the absorption maximum (in CC#N) was 454 nm. The absorption maximum (in Cc1ccccc1) was 446 nm and the absorption maximum (in ClC(Cl)Cl) was 453 nm.

Work on C/C(=N\Nc1ccc(C#N)cc1)c1cccc(/C(C)=N/Nc2ccc(C#N)cc2)c1 yielded an absorption maximum (in CC#N) of 355 nm, an absorption maximum (in CCCCCC) of 359 nm and an absorption maximum (in CO) of 346 nm. The absorption maximum (in CS(C)=O) was 366 nm and the absorption maximum (in ClC(Cl)Cl) was 353 nm.

C[n+]1cc2ccc3c[n+](C)c4ccccc4c3c2c2ccccc21 gave an absorption maximum (in CC#N) of 465 nm.

In the case of c1ccc(-c2nc(-c3ccccc3)c(-c3ccccc3)o2)cc1, the absorption maximum (in Cc1ccccc1) is reported as 311 nm.

COC(=O)C(NC(=O)OC(C)(C)C)c1ccc2oc(-c3cccc(Oc4ccccc4)c3)nc2c1 (stereo unspecified) gave an absorption maximum (in CC1CCCCC1) of 321 nm, an absorption maximum (in CC#N) of 305 nm and an absorption maximum (in CO) of 305 nm.
